The supplement of paper PMC8967900

Key:
Assay in all cases: selective drug sensitivity score (sDSS, relative to normal bone marrow) (sDSS (score)); higher = more potent and effective on the cell line relative to normal bone marrow cells
Conditions in all cases: 72 h
[1] = test system: KASUMI-10
[2] = test system: 380
[3] = test system: MN-60
[4] = test system: SUP-B15
[5] = test system: CCRF-HSB2
[6] = test system: COG-LL-319h
[7] = test system: PEER
[8] = test system: KASUMI-9
[9] = test system: MHH-CALL-2
[10] = test system: MOLT-4
[11] = test system: COG-LL-394h
[12] = test system: NALM-16
[13] = test system: COG-LL-402h
[14] = test system: REH
[15] = test system: COG-LL-332h
[16] = test system: HPB-ALL
[17] = test system: 697
[18] = test system: DND-41
[19] = test system: TMD5
[20] = test system: P12-ICHIKAWA
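Note: ALL cell lines in 384-well plates, five doses spanning 10,000-fold, each plate scaled between vehicle and 100 µmol/L benzalkonium chloride controls, sDSS an adapted area-under-curve metric.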

Structure (SMILES)	selective drug sensitivity score [1]	selective drug sensitivity score [2]	selective drug sensitivity score [3]	selective drug sensitivity score [4]	selective drug sensitivity score [5]	selective drug sensitivity score [6]	selective drug sensitivity score [7]	selective drug sensitivity score [8]	selective drug sensitivity score [9]	selective drug sensitivity score [10]	selective drug sensitivity score [11]	selective drug sensitivity score [12]	selective drug sensitivity score [13]	selective drug sensitivity score [14]	selective drug sensitivity score [15]	selective drug sensitivity score [16]	selective drug sensitivity score [17]	selective drug sensitivity score [18]	selective drug sensitivity score [19]	selective drug sensitivity score [20]
CC1=NN(c2ccc(C(=O)O)cc2)C(=O)C1=Cc1ccc(-c2cc(C)c(C)cc2[N+](=O)[O-])o1 [C646] (top concentration 25000 nM)	-0.36	-0.86	-2.06	5.04	3.14	11.7	-0.66	4.74	-2.06	0.24	-0.66	-2.06	-0.16	4.44	1.74	5.74	2.34	2.94	-2.06	-2.06
CCN1C(=O)CNc2ncc(-c3ccc(-c4nc[nH]n4)nc3C)nc21 [CC-115] (top concentration 10000 nM)	0.14	10.6	1.54	2.34	2.64	11.7	2.34	4.54	8.34	3.04	-2.06	1.34	3.44	0.44	2.54	1.84	4.14	6.74	-1.66	1.04
Cc1noc2c1-c1ccccc1C(c1ccc(Cl)cc1)=N[C@H]2CC(N)=O [CPI-0610] (top concentration 10000 nM)	4.6	1.7	6.9	5.7	0.8	10.3	-1.9	8.4	-3	-2.6	0.5	1.4	4.9	-1.2	-2.8	1	7.1	1.6	0	4.4
Cc1cc(Nc2ncc(Cl)c(Nc3ccccc3S(=O)(=O)C(C)C)n2)c(OC(C)C)cc1C1CCNCC1 [Ceritinib] (top concentration 2500 nM)	0.36	0.36	-2.64	-3.44	-3.44	6.66	-3.44	-2.04	-0.04	-3.44	5.16	-3.44	2.86	-2.84	-3.44	1.86	-2.24	-3.44	-3.44	-3.44
Nc1nc(Cl)nc2c1ncn2[C@@H]1O[C@H](CO)[C@@H](O)[C@@H]1F [Clofarabine] (top concentration 10000 nM)	1	13.4	-7.1	10.5	6.8	5.6	-5.9	7.3	9.2	3.7	-27.4	-5.6	8.1	2.3	4.3	-8.5	9.6	1.4	-26.5	2.1
CC1(COc2ccc3c(c2)ncn3-c2ccc3cccc(N4CCC(N)CC4)c3n2)COC1 [Crenolanib] (top concentration 10000 nM)	12.9	2.08	-3.42	0.88	4.98	-3.92	-1.52	-0.02	3.28	-4.02	-3.62	-7.62	0.68	-4.32	-0.82	-3.12	3.28	0.98	-0.02	-2.62
Cc1nc(Nc2ncc(C(=O)Nc3c(C)cccc3Cl)s2)cc(N2CCN(CCO)CC2)n1 [Dasatinib] (top concentration 1000 nM)	-2.8	-2.8	-1.7	30.2	37.8	9.2	17.2	3.1	-2.8	1.9	0.3	-2.8	16.8	-2.8	17	-2.8	3.1	1.4	10.4	-1.7
CCc1cnn2c(NCc3ccc[n+]([O-])c3)cc(N3CCCC[C@H]3CCO)nc12 [Dinaciclib] (top concentration 1000 nM)	-2.24	-5.34	-7.74	-3.64	-2.74	7.16	-0.24	1.26	-3.74	-5.84	-1.74	-7.04	2.86	-5.84	-1.54	-4.34	-2.64	-0.14	-10.8	-6.44
COc1cccc2c1C(=O)c1c(O)c3c(c(O)c1C2=O)C[C@@](O)(C(=O)CO)C[C@@H]3O[C@H]1C[C@H](N)[C@H](O)[C@H](C)O1 [Doxorubicin] (top concentration 1000 nM)	7.48	11.9	-2.12	11.4	14.4	13.4	-3.62	7.48	10.4	10.5	7.18	-1.82	13.1	9.28	11.3	-0.42	9.88	1.58	3.18	5.08
